The subject of the assay is 293T-HRE-GFP-luc cells. Nature of the assay: Cell-based reporter assay for IC50 determinations. The conditions noted are these: hypoxia 6 hrs (1% O2), luminescence, read-out: IC50 Classification. The gist of the method:
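IC50 comes from a four-parameter logistic fit of luminescence from HRE-GFP-luc 293T cells. Compounds (1:3 series, 1:50 medium dilution) were preincubated 30 min under normoxia, followed by 6 h at 1% O2, 5% CO2, 37 °C, before Steadylite luciferase detection.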
On the technique in general: Reporter assays use an easily measured gene product as a stand-in for the process of interest.

Consider `CNS(=O)(=O)c1cccc(Cn2nc(-c3nc(-c4ccc(OC(F)(F)F)cc4)no3)nc2C)c1` [Example 136, N-methyl-3-[(5-methyl-3-{3-[4-(trifluoromethoxy)phenyl]-1,2,4-oxadiazol-5-yl}-1H-1,2,4-triazol-1-yl)methyl]benzene-1-sulfonamide], for which the IC50 was < 100 nM. For `CCCNS(=O)(=O)c1cccc(Cn2nc(-c3nc(-c4ccc(OC(F)(F)F)cc4)no3)nc2C)c1` [Example 137, 3-[(5-methyl-3-{3-[4-(trifluoromethoxy)phenyl]-1,2,4-oxadiazol-5-yl}-1H-1,2,4-triazol-1-yl)methyl]-N-propylbenzene-1-sulfonamide] the value was < 100 nM. The same measure for `Cc1nc(-c2nc(-c3ccc(OC(F)(F)F)cc3)no2)nn1Cc1cccc(S(=O)(=O)NCC(C)(C)O)c1` [Example 138, 2-hydroxy-2-methyl-S-{3-[(5-methyl-3-{3-[4-(trifluoromethoxy)phenyl]-1,2,4-oxadiazol-5-yl}-1H-1,2,4-triazol-1-yl)methyl]phenyl}propane-1-sulfonamido]: < 100 nM; for `Cc1nc(-c2nc(-c3ccc(OC(F)(F)F)cc3)no2)nn1Cc1cccc(S(=O)(=O)NCC(N)=O)c1` [Example 139, 2-{3-[(5-methyl-3-{3-[4-(trifluoromethoxy)phenyl]-1,2,4-oxadiazol-5-yl}-1H-1,2,4-triazol-1-yl)methyl]benzenesulfonamido}acetamide]: 100 to 1000 nM; for `COCCCn1cc(Cn2nc(-c3nc(-c4ccc(OC(F)(F)F)cc4)no3)nc2C)ccc1=O` [Example 140, 1-(3-methoxypropyl)-5-[(5-methyl-3-{3-[4-(trifluoromethoxy)phenyl]-1,2,4-oxadiazol-5-yl}-1H-1,2,4-triazol-1-yl)methyl]-1,2-dihydropyridin-2-one]: 100 to 1000 nM. For `Cc1nc(-c2nc(-c3ccc(OC(F)(F)F)cc3)no2)nn1Cc1ccnc(OCCCO)c1` [Example 141, 3-({4-[(5-methyl-3-{3-[4-(trifluoromethoxy)phenyl]-1,2,4-oxadiazol-5-yl}-1H-1,2,4-triazol-1-yl)methyl]pyridin-2-yl}oxy)propan-1-ol] the value was < 100 nM. On to `COCCCn1ccc(Cn2nc(-c3nc(-c4ccc(OC(F)(F)F)cc4)no3)nc2C)cc1=O` [Example 142, 1-(3-methoxypropyl)-4-[(5-methyl-3-{3-[4-(trifluoromethoxy)phenyl]-1,2,4-oxadiazol-5-yl}-1H-1,2,4-triazol-1-yl)methyl]-1,2-dihydropyridin-2-one], for which the IC50 lay within 100 to 1000 nM.

As to `Cc1nc(-c2nc(-c3ccc(OC(F)(F)F)cc3)no2)nn1Cc1ccnc(OCCN(C)C)c1` [Example 143, dimethyl[2-({4-[(5-methyl-3-{3-[4-(trifluoromethoxy)phenyl]-1,2,4-oxadiazol-5-yl}-1H-1,2,4-triazol-1-yl)methyl]pyridin-2-yl}oxy)ethyl]amine], the IC50 lay in the range of 100 to 1000 nM. For `Cc1nc(-c2nc(-c3ccc(OC(F)(F)F)cc3)no2)nn1Cc1cccc(OCCCS(C)(=O)=O)c1` [Example 144, 5-(1-([3-(3-methanesulfonylpropoxy)phenyl]methyl)-5-methyl-1H-1,2,4-triazol-3-yl)-3-[4-(trifluoromethoxy)phenyl]-1,2,4-oxadiazole] the value was < 100 nM; for `Cc1nc(-c2nc(-c3ccc(OC(F)(F)F)cc3)no2)nn1Cc1cccc(N2CCNC(=O)C2)c1` [Example 145, 4-{3-[(5-methyl-3-{3-[4-(trifluoromethoxy)phenyl]-1,2,4-oxadiazol-5-yl}-1H-1,2,4-triazol-1-yl)methyl]phenyl]piperazin-2-one], < 100 nM. The same measure for `Cc1nc(-c2nc(-c3ccc(OC(F)(F)F)cc3)no2)nn1Cc1ccnc(N2CCC(S(C)(=O)=O)CC2)c1` [Example 146, 2-(4-methanesulfonylpiperidin-1-yl)-4-[(5-methyl-3-{3-[4-(trifluoromethoxy)phenyl]-1,2,4-oxadiazol-5-yl}-1H-1,2,4-triazol-1-yl)methyl]pyridine]: < 100 nM. The same measure for `Cc1nc(-c2nc(-c3ccc(OC(F)(F)F)cc3)no2)nn1Cc1cccc(N2CCCS2(=O)=O)c1` [Example 147, 2-(3-((5-methyl-3-(3-(4-(trifluoromethoxy)phenyl)-1,2,4-oxadiazol-5-yl)-1H-1,2,4-triazol-1-yl)methyl)phenyl)isothiazolidine 1,1-dioxide]: < 100 nM; for `Cc1nc(-c2nc(-c3ccc(OC(F)(F)F)cc3)cs2)nn1Cc1cccc(N2CCN(C)CC2)c1` [Example 148, 1-methyl-4-{3-[(5-methyl-3-{4-[4-(trifluoromethoxy)phenyl]-1,3-thiazol-2-yl}-1H-1,2,4-triazol-1-yl)methyl]phenyl}piperazine]: < 100 nM; for `Cc1ccc(Cn2nc(-c3nc(-c4ccc(OC(F)(F)F)cc4)cs3)nc2C)cc1` [Example 149, 5-methyl-1-[(4-methylphenyl)methyl]-3-{4-[4-(trifluoromethoxy)phenyl]-1,3-thiazol-2-yl}-1H-1,2,4-triazole]: < 100 nM.

As for `COC(=O)c1cccc(Cn2nc(-c3nc(-c4ccc(OC(F)(F)F)cc4)cs3)nc2C)c1` [Example 150, methyl 3-[(5-methyl-3-{4-[4-(trifluoromethoxy)phenyl]-1,3-thiazol-2-yl}-1H-1,2,4-triazol-1-yl)methyl]benzoate], the IC50 was in the range of 100 to 1000 nM. The same measure for `Cc1nc(-c2nc(-c3ccc(OC(F)(F)F)cc3)cs2)nn1Cc1cccc(O)c1` [Example 151, 3-[(5-methyl-3-{4-[4-(trifluoromethoxy)phenyl]-1,3-thiazol-2-yl}-1H-1,2,4-triazol-1-yl)methyl]phenol]: 100 to 1000 nM; for `Cc1nc(-c2ncc(-c3ccc(OC(F)(F)F)cc3)o2)nn1Cc1cccc(N2CCN(C)CC2)c1` [Example 152, 1-methyl-4-{3-[(5-methyl-3-{5-[4-(trifluoromethoxy)phenyl]-1,3-oxazol-2-yl}-1H-1,2,4-triazol-1-yl)methyl]phenyl}piperazine]: < 100 nM; for `Cc1nc(-c2ncc(-c3ccc(OC(F)(F)F)cc3)o2)nn1Cc1cccc(S(=O)(=O)N2CCOCC2)c1` [Example 153, 4-{3-[(5-methyl-3-{5-[4-(trifluoromethoxy)phenyl]-1,3-oxazol-2-yl}-1H-1,2,4-triazol-1-yl)methyl]benzenesulfonyl}morpholine]: 100 to 1000 nM. For `Cc1ccc(Cn2nc(-c3ncc(-c4ccc(OC(F)(F)F)cc4)o3)nc2C)cc1` [Example 154, 5-methyl-1-[(4-methylphenyl)methyl]-3-{5-[4-(trifluoromethoxy)phenyl]-1,3-oxazol-2-yl}-1H-1,2,4-triazole] the value was 100 to 1000 nM.

For the compound `COC(=O)c1cccc(Cn2nc(-c3ncc(-c4ccc(OC(F)(F)F)cc4)o3)nc2C)c1` [Example 155, methyl 3-[(5-methyl-3-{5-[4-(trifluoromethoxy)phenyl]-1,3-oxazol-2-yl}-1H-1,2,4-triazol-1-yl)methyl]benzoate], the IC50 was 100 to 1000 nM. The same measure for `Cc1nc(-c2ncc(-c3ccc(OC(F)(F)F)cc3)o2)nn1Cc1cccc(O)c1` [Example 156, 3-[(5-methyl-3-{5-[4-(trifluoromethoxy)phenyl]-1,3-oxazol-2-yl}-1H-1,2,4-triazol-1-yl)methyl]phenol]: 1000 to 10000 nM.

Turning to `Cc1nc(-c2ncc(-c3ccc(OC(F)(F)F)cc3)o2)nn1Cc1cccc(C(=O)N(C)C)c1` [Example 157, N,N-dimethyl-3-[(5-methyl-3-{5-[4-(trifluoromethoxy)phenyl]-1,3-oxazol-2-yl}-1H-1,2,4-triazol-1-yl)methyl]benzamide], the IC50 fell in the range of 100 to 1000 nM. For `COCCOc1cccc(Cn2nc(-c3ncc(-c4ccc(OC(F)(F)F)cc4)o3)nc2C)c1` [Example 158, l-{[3-(2-methoxyethoxy)phenyl]methyl}-5-methyl-3-{5-[4-(trifluoromethoxy)phenyl]-1,3-oxazol-2-yl}-1H-1,2,4-triazole] the value was < 100 nM; for `Cc1nc(-c2ncc(-c3ccc(OC(F)(F)F)cc3)o2)nn1Cc1cccc(S(C)(=O)=O)c1` [Example 159, 1-[(3-methanesulfonylphenyl)methyl]-5-methyl-3-{5-[4-(trifluoromethoxy)phenyl]-1,3-oxazol-2-yl}-1H-1,2,4-triazole], 100 to 1000 nM. The same measure for `Cc1nc(-c2cc(-c3ccc(OC(F)(F)F)cc3)no2)nn1Cc1cccc(N2CCN(C)CC2)c1` [Example 160, 1-methyl-4-{3-[(5-methyl-3-{3-[4-(trifluoromethoxy)phenyl]-1,2-oxazol-5-yl}-1H-1,2,4-triazol-1-yl)methyl]phenyl}piperazine]: < 100 nM; for `Cc1nc(-c2cc(-c3ccc(OC(F)(F)F)cc3)no2)nn1Cc1ccnc(N2CCN(C)CC2)c1` [Example 161, 1-methyl-4-{4-[(5-methyl-3-{3-[4-(trifluoromethoxy)phenyl]-1,2-oxazol-5-yl}-1H-1,2,4-triazol-1-yl)methyl]pyridin-2-yl}piperazine]: < 100 nM; for `Cc1nc(-c2cc(-c3ccc(OC(F)(F)F)cc3)on2)nn1Cc1cccc(N2CCN(C)CC2)c1` [Example 162, 1-methyl-4-{3-[(5-methyl-3-{5-[4-(trifluoromethoxy)phenyl]-1,2-oxazol-3-yl}-1H-1,2,4-triazol-1-yl)methyl]phenyl}piperazine]: < 100 nM. The same measure for `Cc1nc(-c2cc(-c3ccc(OC(F)(F)F)cc3)on2)nn1Cc1ccnc(N2CCN(C)CC2)c1` [Example 163, 1-methyl-4-{4-[(5-methyl-3-{5-[4-(trifluoromethoxy)phenyl]-1,2-oxazol-3-yl}-1H-1,2,4-triazol-1-yl)methyl]pyridin-2-yl}piperazine]: < 100 nM.

As usually defined, the IC50 is the concentration at which inhibition is half-maximal.
